From paper PMC6925768, “Determination of Anlotinib, a Tyrosine Kinase Inhibitor, in Rat Plasma by UHPLC-MS/MS and Its Application to a Pharmacokinetic Study” (Journal of Analytical Methods in Chemistry, 2019)
Where two headings read alike, the source gives them in different places.

Legend:
[1] = Stability of stock solutions; type: physicochemical; settings: stock solution in methanol; for Stability of stock solution, long-term test: 4°C for 2 weeks; for Stability of stock solution, short-term test: room temperature for 24 hours
Experimental: (§1) The stability of three concentrations (0.25, 5, 40 ng/mL) of QCs was analyzed under typical storage conditions: (1) rat plasma stored at room temperature for 12 hours (short-term stability); (2) rat plasma stored at −80°C for 30 days (long-term stability); and (3) under three freeze-thaw cycles from −80°C to room temperature. The stability of stock solution of anlotinib and IS was analyzed under room temperature for 24 hours as well as at 4°C for 2 weeks.

[2] = tested on: refractory advanced non-small-cell lung cancer; parameters: method as in PMID 29438373; settings: patients with refractory advanced non-small-cell lung cancer; cited from earlier work
[3] = tested on: human tumor xenograft models; parameters: method as in PMID 27716285; settings: especially colon, ovarian, liver, renal, glioma, non-small-cell lung; cited from earlier work
[4] = tested on: advanced non-small-cell lung cancer; parameters: method as in PMID 30098152; settings: advanced non-small-cell lung cancer after second-line or further treatment; cited from earlier work
[5] = Pharmacokinetic study in rats after single oral administration; type: in vivo, Sprague Dawley rats; settings: 10 mg/kg
Experimental: Male Sprague Dawley rats weighing 250 ± 20 g were purchased from the Shanghai Laboratory Animal Co. (Shanghai, China). All experimental rats were housed in a standard cage with a humidity of 50 ± 20%, a constant temperature of 23–25°C, and a light/dark cycle condition for at least 7 days before the pharmacokinetic study. After 8 h fasting (animals had free access to water), the rats received a single oral administration with anlotinib at a dosage of 10 mg/kg. All animal experiments in present study were approved by the Institutional Animal Care and Use Committee of Wenzhou Medical University (Wenzhou, China).
Blood samples (150 μL) were collected from the tail vein before the dose and at 0.17, 0.75, 1, 1.5, 2, 3, 4, 5, 7, 9, 12, 24, and 48 h after the oral administration of anlotinib. These series of blood samples were transferred into 1.5 mL heparinized tubes. The rat blood samples were immediately centrifuged for 10 min at 5,000 rpm at 4°C, and then the separation of plasma was stored at −80°C until analysis. The noncompartmental statistical model was performed to calculate the pharmacokinetic parameters of anlotinib by Drug and Statistics 3.0 software.

[6] = parameters: method as in PMID 29620050; settings: reported literature, different dose; cited from earlier work
[7] = Stability of anlotinib in rat plasma under various storage conditions; type: in vitro ADME; settings: n = 3; for Short-term stability, Mean / Short-term stability, RE: room temperature 12 hours; for Freeze/thaw stability, Mean / Freeze/thaw stability, RE: three freeze-thaw cycles −80°C to room temperature; for Long-term stability, Mean / Long-term stability, RE: −80°C 30 days
Experimental: as §1

[8] = male, Sprague Dawley, rat plasma, n = 6
[9] = male, Sprague Dawley, rat, plasma, po, n = 6

## Cc1ccc(NC(=O)c2ccc(CN3CCN(C)CC3)cc2)cc1Nc1nccc(-c2cccnc2)n1 [IS, Imatinib]
[1]
  Stability of stock solution, long-term test: 98.73%
  Stability of stock solution, short-term test: 99.35%

## COc1cc2c(Oc3ccc4[nH]c(C)cc4c3F)ccnc2cc1OCC1(N)CC1 [anlotinib, Anlotinib]
[2]
  Progression-free survival versus placebo: obvious progression-free survival (PFS) benefits
  Toxicity tolerance: good toxicity tolerance
[3]
  Activity against human tumor xenograft models: broad activity
[4]
  Overall survival and progression-free survival: improve overall survival (OS) and progression-free survival (PFS)
[5]; [8]
  AUC(0-inf): 186 ± 49.2 ng·h/mL
  CL/F: 942 mL/min/kg
[5]; male, Sprague Dawley, rat plasma, n = 6, read-out: MRT(0-t)
  MRT last: 8.98 ± 1.45 h
[5]; male, Sprague Dawley, rat plasma, n = 6, read-out: MRT(0-∞)
  MRT inf: 9.2 ± 1.21 h
[5]; male, Sprague Dawley, rat plasma, n = 6, read-out: t 1/2 z (converted)
  half-life: 5.05 ± 0.62 h
[5]; [9]
  Cmax: 24.2 ± 4.31 ng/mL
  Tmax: 3.33 h
[5]; male, Sprague Dawley, rat, plasma, po, n = 6, read-out: AUC0-t
  AUC0-t: 184 ± 49.8 ng·h/mL
[5]; rat plasma, n = 6
  AUC0-t: 184.431 ± 49.827 ng·h/mL
  C max: 24.219 ± 4.311 ng/mL
  T max: 3.333 ± 0.816 h
  V/F: 406.029 ± 72.748 L/kg
[6]
  t1/2: 5.7 ± 3.1 h
[7]; 0.25 ng/ml in rat plasma
  Short-term stability, Mean: 0.26 ng/mL
  Short-term stability, RE: 4.65%
  Freeze/thaw stability, Mean: 0.26 ng/mL
  Freeze/thaw stability, RE: 2.03%
  Long-term stability, Mean: 0.25 ng/mL
  Long-term stability, RE: −1.55%
[7]; 0.25 ng/ml
  Autosampler stability, Mean: 0.24 ng/mL
  Autosampler stability, RE: −2.27%
[7]; 5 ng/ml in rat plasma
  Short-term stability, Mean: 5.21 ng/mL
  Short-term stability, RE: 4.27%
  Freeze/thaw stability, Mean: 4.94 ng/mL
  Freeze/thaw stability, RE: −1.13%
  Long-term stability, Mean: 5.19 ng/mL
  Long-term stability, RE: 3.75%
[7]; 5 ng/ml
  Autosampler stability, Mean: 5.14 ng/mL
  Autosampler stability, RE: 2.75%
[7]; 40 ng/ml in rat plasma
  Short-term stability, Mean: 41.64 ng/mL
  Short-term stability, RE: 4.1%
  Freeze/thaw stability, Mean: 40.55 ng/mL
  Freeze/thaw stability, RE: 1.39%
  Long-term stability, Mean: 41.19 ng/mL
  Long-term stability, RE: 2.97%
[7]; 40 ng/ml
  Autosampler stability, Mean: 41.14 ng/mL
  Autosampler stability, RE: 2.85%
[1]
  Stability of stock solution, long-term test: 95.96%
  Stability of stock solution, short-term test: 98.96%
